Active and inactive are the calls of the source. No cut-off for these calls is given here.
Experiments:
[1] = AUC in Sprague-Dawley rat at 300 mg/kg dosed daily for 2 weeks; format: ADME, organism-based; design: dose 300 mg/kg; conditions: plasma
[2] = Cmax in monkey; format: ADME, organism-based, Macaca mulatta; conditions: rhesus monkey, in vivo
Rattus norvegicus [3] = assay: Antidiabetic activity in obese insulin-resistant Zucker fa/fa rat assessed as decrease in plasma triglyceride level at 3 to 150 mg/kg, po once daily for 7 days; format: functional, organism-based
[4] = Volume of distribution at steady state in dog; format: ADME, organism-based, Canis lupus familiaris; conditions: in vivo, read-out: Vdss
[5] = target: T1, Peroxisome proliferator-activated receptor alpha (Canis lupus familiaris) (UniProt Q95N78); assay: Agonist activity at dog PPARalpha at 3000 nM; format: functional
T1 sequence (whole entry): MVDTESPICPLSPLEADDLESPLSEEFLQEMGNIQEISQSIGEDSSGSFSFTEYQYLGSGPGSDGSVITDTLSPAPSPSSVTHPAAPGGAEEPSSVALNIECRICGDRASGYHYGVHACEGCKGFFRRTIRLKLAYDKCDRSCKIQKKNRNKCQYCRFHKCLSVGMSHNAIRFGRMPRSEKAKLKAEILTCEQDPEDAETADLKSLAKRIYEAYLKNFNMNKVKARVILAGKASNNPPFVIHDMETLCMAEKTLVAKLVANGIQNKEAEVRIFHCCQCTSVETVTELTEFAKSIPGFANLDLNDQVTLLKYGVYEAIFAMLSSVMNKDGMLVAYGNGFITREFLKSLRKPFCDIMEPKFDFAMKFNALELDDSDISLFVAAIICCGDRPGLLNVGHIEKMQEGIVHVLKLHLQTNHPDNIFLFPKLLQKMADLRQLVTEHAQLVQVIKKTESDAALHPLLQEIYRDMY

[6] = Oral bioavailability in rat; format: ADME, organism-based; conditions: in vivo
Mus musculus = assay: Antihyperglycemic activity in db/db mouse assessed as plasma adiponectin level at 30 mg/kg, po administered once daily for 11 days by RIA; format: functional
Rattus norvegicus [7] = assay: Toxicity in obese insulin-resistant Zucker fa/fa rat assessed as increase in plasma volume at 100 mg/kg, po once daily for 7 days by Evans blue dye dilution technique; conditions: in vivo, 168 h
[8] = Plasma clearance in rat; format: ADME, organism-based
Rattus norvegicus [9] = assay: Antidiabetic activity in obese insulin-resistant Zucker fa/fa rat assessed as decrease in plasma insulin level at 3 to 150 mg/kg, po once daily for 7 days; format: functional, organism-based
Rattus norvegicus [10] = assay: Toxicity in Sprague-Dawley rat assessed as heart weight at 300 mg/kg dosed daily for 2 weeks; format: organism-based; design: dose 300 mg/kg; conditions: in vivo, 336 h
Liver microsomes [11] = assay: Protein binding in rat liver microsomes assessed per mg of protein; format: ADME, Microsome
[12] = target: T2, Peroxisome proliferator-activated receptor alpha (Mus musculus) (UniProt P23204); assay: Agonist activity at mouse PPARalpha at 3000 nM; format: functional
T2 sequence (whole entry): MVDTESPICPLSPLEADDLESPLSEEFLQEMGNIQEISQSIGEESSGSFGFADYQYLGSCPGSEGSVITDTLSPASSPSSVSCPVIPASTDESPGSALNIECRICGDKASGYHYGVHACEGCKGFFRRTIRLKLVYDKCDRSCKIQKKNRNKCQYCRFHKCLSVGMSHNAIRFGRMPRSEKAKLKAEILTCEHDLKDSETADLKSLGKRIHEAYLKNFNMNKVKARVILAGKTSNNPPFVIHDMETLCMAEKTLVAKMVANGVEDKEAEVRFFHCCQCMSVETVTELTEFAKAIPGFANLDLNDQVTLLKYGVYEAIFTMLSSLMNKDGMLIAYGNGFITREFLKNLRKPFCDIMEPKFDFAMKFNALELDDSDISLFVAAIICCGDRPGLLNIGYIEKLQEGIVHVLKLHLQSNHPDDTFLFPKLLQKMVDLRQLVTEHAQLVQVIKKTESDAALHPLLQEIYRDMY

Rattus norvegicus [13] = assay: Toxicity in obese insulin-resistant Zucker fa/fa rat assessed as increase in extracellular fluid volume at 3 to 150 mg/kg, po once daily for 7 days measured after 24 hrs by bioelectrical impedance analysis; format: organism-based; design: dose 3-150 mg/kg, route oral; conditions: in vivo
[14] = Terminal half life in monkey; format: ADME, organism-based, Macaca mulatta; conditions: rhesus monkey, in vivo; read-out: beta t1/2 (converted)
Liver microsomes [15] = assay: Protein binding in human liver microsomes assessed per mg of protein; format: ADME, Microsome
Liver = assay: Protein binding in rat liver assessed per mg of protein; format: ADME, tissue-based
Rattus norvegicus [16] = assay: Toxicity in Sprague-Dawley rat assessed as liver weight at 300 mg/kg dosed daily for 2 weeks; format: organism-based; design: dose 300 mg/kg; conditions: in vivo, 336 h
[17] = Volume of distribution at steady state in rat; format: ADME, organism-based; conditions: in vivo, read-out: Vdss
Rattus norvegicus [18] = assay: Toxicity in Sprague-Dawley rat assessed as brown adipose tissue weight at 300 mg/kg dosed daily for 2 weeks; format: organism-based; design: dose 300 mg/kg; conditions: in vivo, 336 h
[19] = target: T3, Peroxisome proliferator-activated receptor gamma (Homo sapiens, UniProt P37231)
T3 sequence (P37231 whole entry): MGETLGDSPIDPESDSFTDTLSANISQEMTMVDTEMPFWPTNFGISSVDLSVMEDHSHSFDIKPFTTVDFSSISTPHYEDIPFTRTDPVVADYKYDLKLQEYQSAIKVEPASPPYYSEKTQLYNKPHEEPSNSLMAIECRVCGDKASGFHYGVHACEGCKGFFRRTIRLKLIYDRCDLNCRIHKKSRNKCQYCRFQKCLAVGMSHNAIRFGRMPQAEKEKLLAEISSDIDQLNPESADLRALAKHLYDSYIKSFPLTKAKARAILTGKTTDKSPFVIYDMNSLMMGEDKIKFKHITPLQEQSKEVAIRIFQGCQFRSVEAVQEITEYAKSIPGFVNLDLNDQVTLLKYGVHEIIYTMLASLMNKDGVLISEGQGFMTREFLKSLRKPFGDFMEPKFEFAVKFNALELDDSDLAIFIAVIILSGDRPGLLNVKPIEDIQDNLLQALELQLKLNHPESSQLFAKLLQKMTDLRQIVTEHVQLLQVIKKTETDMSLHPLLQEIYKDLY
Description: Displacement of [3H2]nTZD3 from human recombinant GST-fused PPARgamma expressed in Escherichia coli by scintillation proximity assay

[20] = AUC in obese insulin-resistant Zucker fa/fa rat at 30 mg/kg, po once daily for 7 days; format: ADME, organism-based; design: dose 30 mg/kg, route oral; conditions: plasma
[21] = target: T4, Peroxisome proliferator-activated receptor alpha (Mus musculus, UniProt P23204); assay: Agonist activity at mouse PPARalpha; format: functional; conditions: read-out: EC50
T4 sequence (P23204 whole entry): T2 sequence (whole entry)

Rattus norvegicus [22] = assay: Antidiabetic activity in obese insulin-resistant Zucker fa/fa rat assessed as decrease in plasma free fatty acid level at 3 to 150 mg/kg, po once daily for 7 days; format: functional, organism-based
[23] = Oral bioavailability in monkey; format: ADME, organism-based, Macaca mulatta; conditions: rhesus monkey, in vivo

Structure (SMILES): CC[C@@H](Oc1cccc(-n2c(C)c(C(=O)c3ccc(OC)cc3)c3ccc(OC(F)(F)F)cc32)c1)C(=O)O [MK-0533]
- AUC at 336 h [1]: 954 µM·h
- Cmax [2]: 500 nM
- Activity (Rattus norvegicus [3]): Active
- Vd [4]: 1.4 L/kg
- Activity [5]: 35%
- bioavailability [6]: 81%
- Activity (Mus musculus): 48.1 µg/mL
- Activity (Rattus norvegicus [7]): Toxic
- clearance [8]: 18.3 mL/min/kg
- Activity (Rattus norvegicus [9]): Active
- Activity (Rattus norvegicus [10]): 1.1 g
- PB (Liver microsomes [11]): < 10 pmol
- Activity [12]: 53%
- Activity (Rattus norvegicus [13]): Non-toxic
- half-life [14]: 3.2 h
- PB (Liver microsomes [15]): < 10 pmol
- PB (Liver): < 10 pmol
- Activity (Rattus norvegicus [16]): 19.7 g
- Vd [17]: 1.4 L/kg
- Activity (Rattus norvegicus [18]): 537 mg
- IC50 [19]: 0.009 µM
- AUC at 168 h [20]: 115 µM·h
- EC50 [21]: 0.24 µM
- Activity (Rattus norvegicus [22]): Active
- bioavailability [23]: 25%
